The source of these data is US10905654B2, “Compositions of bakuchiol and methods of making the same” (Unigen, Inc., priority 2005, dated 2021).

Usually logP stands for a log measure of how a compound divides between an organic and an aqueous phase. By IC50 is commonly meant the concentration that gives 50% inhibition.

The test system of one data set is COX-1 versus COX-2. The settings on record: COX-1 selective inhibitor; cited from earlier work.
Data set [1] has as its system Epidermophyton floccosum (ATCC 18397). As to the kind of experiment: Antimicrobial activity. Type of data set: cell-based. The settings on record: 99% pure sample, tested at 0.03-100 μg/mL.
Data set [2] deals with Propionibacterium acnes (ATCC 6919). As to the kind of experiment: Antimicrobial activity, turbidity. Type of data set: cell-based. The settings on record: 99% pure sample, tested at 0.03-100 μg/mL, 1 day. On the procedure: (§1) The anti-microbial activity of a highly pure bakuchiol sample (99% pure; #MH-258-12-08) was evaluated using published methods (Modugno et al. (1994) Antimicrobial Agents & Chemotherapy 38:2362-2368; Misiek et al. (1973) Antimicrobial Agents & Chemotherapy 3:40-48). Briefly, Staphylococcus epidermidis (Gram Positive. ATCC 12228) was cultured for 20 hours at 37° C. in Mueller-Hinton Broth medium. Propionibacterium acnes (ATCC 6919) was cultured for 2 days at 37° C. in Reinforced Clostridial medium. The test article and positive control were dissolved in 1% DMSO with an incubation volume of 1 mL. The time of assessment was 1 day. Measurement of turbidity was used as the method of quantification. A highly pure bakuchiol sample (99%; #MH-258-12-08) was tested in duplicate at concentrations of 100 μg/mL, 30 μg/mL, 10 μg/mL, 3 μg/mL, 1 μg/mL, 0.3 μg/mL, 0.1 μg/mL and 0.03 μg/mL relative to positive controls-gentamicin at 0.1 μg/mL for Staphylococcus epidermidis and ampicillin at 0.1 μg/mL for Propionibacterium acnes, respectively.

Data set [3] deals with Staphylococcus epidermidis (Gram Positive, ATCC 12228). As to the kind of experiment: Antimicrobial activity, turbidity. Type of data set: cell-based. As to conditions: 99% pure sample, tested at 0.03-100 μg/mL, 1 day. On the procedure:
as §1

Data set [4] deals with Microsporum canis (ATCC 36299). As to the kind of experiment: Antimicrobial activity. As to conditions: 99% pure sample, tested at 0.03-100 μg/mL. Type of data set: cell-based.
A further data set has as its target COX-1 (Homo sapiens, UniProt P23219). As to the kind of experiment: COX-1 inhibition, peroxidase activity assay. Type of data set: biochemical. As to conditions: 99% bakuchiol sample, IC50 normalized to enzyme units. An excerpt: In order to screen for compounds that inhibited COX-1 and COX-2 activity, a high throughput, in vitro assay was developed that utilized the inhibition of the peroxidase activity of both enzymes. (Needleman et al. (1986) Annu Rev Biochem. 55:69). Briefly, the composition or compound being examined was titrated against a fixed amount of COX-1 and COX-2 enzymes. A cleavable, peroxide chromophore was included in the assay to visualize the peroxidase activity of each enzyme in presence of arachidonic acid as a cofactor. Typically, assays were performed in a 96-well format. Each inhibitor, taken from a 10 mg/mL stock solution in 100% DMSO, was tested in triplicate at room temperature using the following range of concentrations: 0, 0.1, 1, 5, 10, 20, 50, 100, and 500 μg/mL. To each well, 150 μL of 100 mM Tris-HCl, pH 7.5 was added along with 10 μL of 22 μM Hematin diluted in tris buffer, 10 μL of inhibitor diluted in DMSO and 25 units of either the COX-1 or COX-2 enzyme. […] The plate was shaken for 10 seconds and then incubated 5 minutes before reading the absorbance at 570 nm. The inhibitor concentration vs. % inhibition was plotted and the IC50 determined by taking the half-maximal point along the isotherm and intersecting the concentration on the X-axis. […]

In data set [5] the test system is Trichophyton mentagrophytes (ATCC 9533). As to the kind of experiment: Antimicrobial activity. Type of data set: cell-based. As to conditions: 99% pure sample; tested at 0.03-100 μg/mL.
In data set [6] the test system is Pityrosporum ovale (ATCC 38593). As to the kind of experiment: Antimicrobial activity. Type of data set: cell-based. As to conditions: 99% pure sample, tested at 0.03-100 μg/mL.
The target in data set [7] is T1, human 5-lipoxygenase (5-LO or 5-LOX) (Homo sapiens, UniProt P09917).
T1 construct: 5-LOX was isolated from human PBML cells; endogenous in cells; host or cells: human PBML cells (peripheral blood mononuclear leukocytes)
T1 sequence (P09917 1-674): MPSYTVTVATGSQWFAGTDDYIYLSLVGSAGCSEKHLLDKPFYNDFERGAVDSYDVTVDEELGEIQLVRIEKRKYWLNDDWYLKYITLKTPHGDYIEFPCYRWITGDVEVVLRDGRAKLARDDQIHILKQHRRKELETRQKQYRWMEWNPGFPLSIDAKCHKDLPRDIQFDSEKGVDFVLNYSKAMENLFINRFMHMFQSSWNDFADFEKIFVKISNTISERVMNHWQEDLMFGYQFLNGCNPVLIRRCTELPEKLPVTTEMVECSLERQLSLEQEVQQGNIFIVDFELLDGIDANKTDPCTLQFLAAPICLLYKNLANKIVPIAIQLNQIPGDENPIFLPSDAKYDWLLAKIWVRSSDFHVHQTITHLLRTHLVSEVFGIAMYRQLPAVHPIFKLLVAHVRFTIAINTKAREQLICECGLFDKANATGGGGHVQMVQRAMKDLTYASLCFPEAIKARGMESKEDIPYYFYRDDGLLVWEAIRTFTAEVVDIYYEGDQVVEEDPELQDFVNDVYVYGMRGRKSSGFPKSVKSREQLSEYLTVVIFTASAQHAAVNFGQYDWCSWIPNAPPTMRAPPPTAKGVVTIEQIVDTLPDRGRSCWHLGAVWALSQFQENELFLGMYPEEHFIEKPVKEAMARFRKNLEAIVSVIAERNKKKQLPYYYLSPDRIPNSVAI
As to the kind of experiment: Lipoxygenase Inhibition Assay (LTB4 formation, EIA). As to conditions: 99% bakuchiol; 5-LOX from human PBML cells, arachidonic acid substrate. Type of data set: biochemical. Here is the method:
As noted above, one of the most important pathways involved in the inflammatory response is produced by non-heme, iron-containing lipoxygenases (5-LOX, 12-LOX, and 15-LOX), which catalyze the oxidation of fatty acids such as AA to produce the hydroperoxides 5-, 12- and 15-HPETE, which are then converted to leukotrienes. A Lipoxygenase Inhibition Assay was carried out using a published method (Carter et al. (1991) J. Pharmacol. Exp. Ther. 256(3):929-937, Safayhi et al. (2000) Planta Medica. 66:110-113). 5-LOX was isolated from human PBML cells and arachidonic acid was utilized as a substrate. The test article and positive control were dissolved in 1% DMSO. HBSS (Hank's balanced salt solution) was used as incubation buffer. Pre-incubation time was 15 minutes at 37° C., followed by 15 min. incubation at the same temperature. This assay detects the formation of LTB4 with EIA quantification. Highly pure bakuchiol (99% bakuchiol, #MH-258-12-08) was tested in duplicate at concentrations of 10 μM, 1 μM, 0.1 μM, and 10 nM relative to a positive control-NDGA at five concentrations. The dose response curve is illustrated in the FIG. 6.

A short description of data set [8]: Acute toxicity, 14-day study in mice. Type of data set: in vivo, female ICR mice. On the procedure: […] Forty female ICR mice (Harlan) aged 4-5 weeks old were used for the 14-day study. Mice were administered […] of the acute dose daily, approximately 2 g/kg by weight per test article per day. The first 10 mice received the composition containing 20.7% bakuchiol, while the second group of 10 mice received a composition containing 99% bakuchiol. The UP256 composition was suspended in water and administered through a syringe. Twenty mice were administered water, as the control group. The weights of all mice were measured, including baseline, 3 mid points, and an endpoint. […] Any abnormal health conditions or behavior was recorded over the two-week period. A necropsy of all mice was completed on day 14 and blood from all groups was collected for a complete blood screen. Two mice picked randomly from each of groups also had kidney and liver tissues removed for Histopathology. All blood work and pathology work was completed through Antech Diagnostics.

Another data set has as its target T2, PTPIB (Homo sapiens, UniProt P18031).
T2 sequence (P18031 1-435): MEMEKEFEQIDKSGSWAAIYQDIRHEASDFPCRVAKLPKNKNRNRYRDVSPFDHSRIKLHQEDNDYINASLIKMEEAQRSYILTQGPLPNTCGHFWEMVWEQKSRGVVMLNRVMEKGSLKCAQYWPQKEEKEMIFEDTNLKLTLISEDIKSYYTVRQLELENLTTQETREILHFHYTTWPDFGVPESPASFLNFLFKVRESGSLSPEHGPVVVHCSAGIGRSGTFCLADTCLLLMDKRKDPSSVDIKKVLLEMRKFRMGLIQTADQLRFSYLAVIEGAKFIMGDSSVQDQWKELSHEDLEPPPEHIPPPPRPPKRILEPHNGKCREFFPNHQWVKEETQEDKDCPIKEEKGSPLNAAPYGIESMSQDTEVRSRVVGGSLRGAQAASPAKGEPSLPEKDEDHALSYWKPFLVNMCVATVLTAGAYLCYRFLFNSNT
As to conditions: Kim et al. 2005; cited from earlier work.

Setting [9] is: 20.7% and 99% bakuchiol samples, approximately 2 g/kg per day, 14 days.
Where [10] appears, read: UP256 at concentrations of 30% and 70%, oral daily 2 g/kg for 14 days.
Setting [11] is: day 14, 20.7% and 99% bakuchiol samples, approximately 2 g/kg per day.
[12] abbreviates: two mice per group, approximately 2 g/kg per day, 14 days.

COX-1, sequence (P23219 24-599): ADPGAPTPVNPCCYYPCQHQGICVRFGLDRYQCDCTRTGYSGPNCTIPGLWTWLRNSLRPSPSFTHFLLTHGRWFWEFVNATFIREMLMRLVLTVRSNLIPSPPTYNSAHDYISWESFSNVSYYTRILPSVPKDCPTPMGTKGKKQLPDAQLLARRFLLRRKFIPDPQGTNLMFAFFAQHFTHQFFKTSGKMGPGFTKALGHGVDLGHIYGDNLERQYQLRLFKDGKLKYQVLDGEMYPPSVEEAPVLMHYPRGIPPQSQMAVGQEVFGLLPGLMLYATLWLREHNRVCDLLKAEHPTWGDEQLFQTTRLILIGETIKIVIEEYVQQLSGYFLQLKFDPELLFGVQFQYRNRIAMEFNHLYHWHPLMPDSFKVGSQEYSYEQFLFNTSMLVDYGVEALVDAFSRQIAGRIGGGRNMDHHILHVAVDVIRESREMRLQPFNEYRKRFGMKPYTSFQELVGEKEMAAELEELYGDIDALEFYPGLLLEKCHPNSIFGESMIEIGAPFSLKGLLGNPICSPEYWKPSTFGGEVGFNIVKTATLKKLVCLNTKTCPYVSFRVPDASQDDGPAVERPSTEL

With `CC(=O)Oc1ccccc1C(=O)O` [aspirin], in the data set with COX-1 versus COX-2, the “effectiveness against COX-1 versus COX-2” value is “more than 150 times”.
In the case of `C=C[C@@](C)(/C=C/c1ccc(O)cc1)CCC=C(C)C` [UP256, bakuchiol], the inhibition result is listed as “No inhibition” in data set [1]; “no inhibition” in [1] (listed as bakuchiol); “No inhibition” in data set [4]; “no inhibition” in data set [4] (listed as bakuchiol); “No inhibition” in data set [6]; “no inhibition” in data set [6] (listed as bakuchiol). Moreover, the “minimum effective concentration (significant inhibition)” value in data set [2] and in data set [3] was 1 µg/mL each time. The logP in “physchem” is 6.13. Besides, the results for the half-inhibitory concentration (IC50) (on COX-1; in [7]; on PTPIB) were 2340 nM, 3.41 µM and 20.8 µM, respectively. In data set [5], the “concentration of moderate inhibition” value is 30 µg/mL. Also, the average weight entry in data set [8] (setting [9]) is listed as “continued to increase”. In addition, in data set [8] (setting [9]), the food/water consumption entry is reported as “remained the same”. Moreover, the “significant difference in behavior versus control mice” value in data set [8] (setting [9]) is “Aggression towards the investigator (i.e. biting) and towards each other (i.e. fighting in cage)”. The “adverse effects, fourteen-day study” value in data set [8] (setting [10]) was “No adverse effects”; in data set [8] (both purity levels (20% and 99% purity), approximately 2 g/kg per day), “No adverse effects”. Further, in [8] (setting [10]), the “toxicity in major organs tested” value is reported as “no toxicity”. For the same compound, in data set [8] (setting [11]), the blood work entry is recorded as “normal relative to the controls”. Further, the necropsy entry in data set [8] (setting [11]) is on record as “no gross abnormalities or changes in any organ”. In [8] (setting [12]), the “histopathology, kidney” value was “significant changes were not present”. The “histopathology, liver hepatocyte nuclei” value in [8] (setting [12]) is listed as “within normal limits”.
